Data on one molecule can be found in patent publication US8101761B2, “(E)-N-{3-[1-(8-fluoro-11H-10-OXA-1-AZA-dibenzo [A,D] cyclohepten-5ylidene)-propyl]-phenyl}-methanesulfonamide as glucocorticoid receptor modulator for the treatment of rheumatoid arthritis” (Eli Lilly and Company, priority 2008, dated 2012).

Molecules are shown by their SMILES. pEC50: −log10 of the molar value. Where only a bound is given, the exact number is not on record here.

For orientation: pEC50 means the EC50 on a negative log10 scale, so that one unit is a factor of ten.

Test [1] addresses T1, human progesterone receptor (PR) (Homo sapiens, UniProt P06401).
T1 construct: expressed in transfected cells; host or cells: HEK293, transient transfection, CMV promoter plasmid
T1 sequence (P06401 1-933): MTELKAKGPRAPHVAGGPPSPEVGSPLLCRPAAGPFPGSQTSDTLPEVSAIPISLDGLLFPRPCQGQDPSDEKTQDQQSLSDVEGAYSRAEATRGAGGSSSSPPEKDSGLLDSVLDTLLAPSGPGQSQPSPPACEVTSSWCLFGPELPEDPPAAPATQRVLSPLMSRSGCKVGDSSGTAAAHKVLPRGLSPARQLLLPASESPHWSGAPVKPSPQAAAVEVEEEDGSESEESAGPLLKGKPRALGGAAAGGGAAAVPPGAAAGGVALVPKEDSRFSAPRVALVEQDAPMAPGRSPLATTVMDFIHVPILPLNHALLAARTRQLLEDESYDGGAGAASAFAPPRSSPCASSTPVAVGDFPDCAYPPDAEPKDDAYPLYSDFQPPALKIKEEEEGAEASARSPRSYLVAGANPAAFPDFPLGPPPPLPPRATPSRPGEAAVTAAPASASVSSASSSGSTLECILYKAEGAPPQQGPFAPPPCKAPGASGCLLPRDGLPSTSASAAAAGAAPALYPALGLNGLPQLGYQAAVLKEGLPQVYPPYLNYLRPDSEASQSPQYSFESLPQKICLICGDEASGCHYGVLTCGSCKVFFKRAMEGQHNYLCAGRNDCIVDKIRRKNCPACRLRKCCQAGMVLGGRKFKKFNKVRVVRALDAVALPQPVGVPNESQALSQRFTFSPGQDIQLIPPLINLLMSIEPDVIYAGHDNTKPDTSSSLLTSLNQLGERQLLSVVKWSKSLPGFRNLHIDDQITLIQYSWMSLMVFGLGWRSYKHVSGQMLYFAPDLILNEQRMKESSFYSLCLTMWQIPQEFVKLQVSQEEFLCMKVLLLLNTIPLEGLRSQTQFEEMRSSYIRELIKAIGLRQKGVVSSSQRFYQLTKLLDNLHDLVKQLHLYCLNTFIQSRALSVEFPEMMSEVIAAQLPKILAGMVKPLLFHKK
Put plainly: Nuclear hormone receptor functional modulation assay (GRE-luciferase reporter, HEK293), PR. The note with it: agonist mode, mean of n=4 or 5. It is filed as cell-based. The text has this: (§1) The solvents, reagents, and ligands employed in the functional assay are readily available from commercial sources, or can be prepared by one of ordinary skill in the art.
(§2) Human embryonic kidney HEK293 cells are transfected with steroid hormone receptor and reporter gene plasmids using Fugene™ transfection reagent. Briefly, the reporter plasmid containing two copies of probasin ARE and TK(thymidine kinase) promoter upstream of the luciferase reporter cDNA, is transfected into HEK293 cells with a plasmid constitutively expressing human androgen receptor (AR) using viral CMV(cytomegalovirus) promoter. The reporter plasmid containing two copies of GRE and TK promoter upstream of the luciferase reporter cDNA is transfected with a plasmid constitutively expressing either human glucocorticoid receptor (GR), human mineralocorticoid receptor (MR), or human progesterone receptor (PR) using viral CMV promoter. […] After 24-hours incubation with test compounds, cells are lysed and luciferase activity is determined using standard techniques.
(§3) Data are fitted to a four parameter-fit logistic curve fit to determine EC50 values. […] IC50 values may be determined similarly using antagonist mode assay data. Percent inhibitions may also be determined relative to the response in the presence of agonist alone, as described above.
On the technique in general: A reporter such as luciferase makes a cellular process visible.

In test [2] the target is T2, human androgen receptor (AR) (Homo sapiens, UniProt P10275).
T2 construct: expressed in transfected cells; host or cells: HEK293, transient transfection, CMV promoter plasmid
T2 sequence (P10275 1-920): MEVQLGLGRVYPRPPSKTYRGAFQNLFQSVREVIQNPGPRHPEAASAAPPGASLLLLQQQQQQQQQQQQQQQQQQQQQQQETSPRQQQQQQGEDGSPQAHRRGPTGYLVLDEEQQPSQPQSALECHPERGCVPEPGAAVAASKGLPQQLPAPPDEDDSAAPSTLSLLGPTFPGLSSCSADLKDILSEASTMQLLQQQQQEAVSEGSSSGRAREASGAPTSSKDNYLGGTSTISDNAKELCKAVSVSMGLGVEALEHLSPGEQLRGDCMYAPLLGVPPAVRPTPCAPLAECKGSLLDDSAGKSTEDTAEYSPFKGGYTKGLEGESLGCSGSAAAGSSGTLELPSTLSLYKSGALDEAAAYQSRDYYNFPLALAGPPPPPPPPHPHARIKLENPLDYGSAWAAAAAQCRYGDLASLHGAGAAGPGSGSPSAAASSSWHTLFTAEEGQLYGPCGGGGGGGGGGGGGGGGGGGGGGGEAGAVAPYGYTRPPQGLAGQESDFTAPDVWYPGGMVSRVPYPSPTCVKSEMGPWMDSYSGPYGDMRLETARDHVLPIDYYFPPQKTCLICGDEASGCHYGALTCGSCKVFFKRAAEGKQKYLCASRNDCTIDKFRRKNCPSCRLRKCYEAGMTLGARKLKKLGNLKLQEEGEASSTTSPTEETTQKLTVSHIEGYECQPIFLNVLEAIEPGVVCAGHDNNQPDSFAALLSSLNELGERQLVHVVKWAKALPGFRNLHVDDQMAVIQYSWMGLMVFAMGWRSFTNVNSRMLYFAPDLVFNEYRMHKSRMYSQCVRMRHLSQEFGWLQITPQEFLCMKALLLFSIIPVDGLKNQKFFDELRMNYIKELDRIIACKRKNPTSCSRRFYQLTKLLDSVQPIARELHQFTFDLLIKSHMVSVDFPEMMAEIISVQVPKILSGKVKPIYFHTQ
Put plainly: Nuclear hormone receptor functional modulation assay (probasin ARE-luciferase reporter, HEK293), AR. The format is cell-based. To be noted: agonist mode, mean of n=4 or 5.
Description: as §1, §2, §3

With `CC/C(=C1\c2ccc(F)cc2OCc2ncccc21)c1cccc(NS(C)(=O)=O)c1` [Compound (I), (E)-N-{3-[1-(8-Fluoro-11H-10-oxa-1-aza-dibenzo[a,d]cyclohepten-5-ylidene)-propyl]-phenyl}-methanesulfonamide], in test [1] (relative to 30 nM promegestone), the “efficacy in activating transcription, PR” value is given as “about 54%”. The pEC50 is under 5.00 in test [1] (read-out: EC50 in activating transcription, PR) and under 5.00 in test [2] (read-out: EC50 in activating transcription, AR). In addition, the “efficacy in activating transcription, AR” value in test [2] (relative to 100 nM methyltrienolone) is listed as “about 4.4%”.
